Several values for one entry are separate records, joined by “and”; a condition that tells them apart may be missing. Identical values can stand only once.
Assays:
[1] = test system: C. albicans (ATCC 10231); experiment: In vitro antifungal CFU assay; type: cell-based, Candida albicans; conditions: pH 5.4
Description: (§1) All microbes were grown at 37 °C in Tryptic Soy Broth (TSB; Biolife, Milan, Italy) or Tryptic Soy Agar plates (TSA, Biolife, Milan, Italy). Peptides were tested at a final concentration C = 0.128, 0.064, 0.032 mg/mL, in the presence or absence of ZnCl2 or CuCl2, at a M:L molar ratio 0.9:1. Briefly, all the microbes were expanded in TSB at 37 °C under agitation for 12 h and then sub-cultured by 1:10 dilution in TSB under the same conditions until reaching OD600nm = 0.3–0.4, as measured by spectrophotometric reading using a GENESYS 10S UV–Vis spectrophotometer (Thermo Scientific, Milan, Italy), corresponding to 0.9–1.2 × 10^7 colony forming units (CFU) per mL, 1.5–2 × 10^8 CFU/mL and 2.4–3.2 × 10^8 CFU/mL, for C. albicans, S. aureus and E. coli respectively. The cultures were then centrifuged at 4500 rpm for 10 min in a SL 8 centrifuge (TX-150 Rotor) (Thermo Scientific, Milan, Italy), and the cellular pellets were washed with PBS pH 5.4. Pelletized cultures were then suspended in 10 mL of PBS pH 5.4, then the suspensions were diluted to a final concentration of 10^4 CFU/mL. Aliquots of 100 µl (corresponding to 10^3 CFU) were seeded in each well of a 96-wells plate. 3 µl of TSB at pH 5.4 were added to each well to obtain a final 1.5% TSB concentration in the culture medium. Peptides were serially diluted in PBS pH 5.4 to C = 0.257, 0.128, and 0.064 mg/mL. ZnCl2 and CuCl2 solutions were added where requested to obtain a M:L ratio 0.9:1. 100 µl of the prepared peptides ± ZnCl2/CuCl2 solutions were then added to each well, obtaining the final 0.128, 0.064 and 0.032 mg/mL peptide concentrations in a total 0.2 mL volume. PBS alone and PBS + ZnCl2/CuCl2 solutions were included as controls. The plates were incubated at 37 °C on a platform rocker with slow stirring for 3 and 24 h. At the end of the incubation times, 100 µl aliquots were taken from each sample and diluted in PBS pH 5.4 to be seeded on TSA plates. Specifically, aliquots were diluted 1:10 at 3 h, and 1:200, 1:100,000 and 1:10 at 24 h, for C. albicans, E. coli, and S. aureus respectively. After incubation for 24 h at 37 °C, grown CFUs were enumerated. Samples were assayed in triplicate in two independent experiments. Student’s t-test was used for the evaluation of significance in biological tests; a p value ≤ 0.05 was considered significant.

[2] = test system: S. aureus (ATCC 25293); experiment: In vitro anti-S. aureus CFU assay; type: cell-based, Staphylococcus aureus; conditions: 3 h, pH 5.4; for mean CFU number ± S.D.: metal salt alone, one value per peptide panel
Description: as §1

[3] = test system: E. coli (ATCC 25922); experiment: In vitro anti-E. coli CFU assay; type: cell-based, Escherichia coli; conditions: pH 5.4; for CFU decrease/increase with respect to untreated controls / mean CFU number ± S.D.: metal salt alone, one value per peptide panel
Description: as §1

[4] = metal salt alone, same concentration as used with 0.032 mg/mL peptide, 24 h, one value per peptide panel
[5] = metal salt alone, same concentration as used with 0.064 mg/mL peptide, 24 h, one value per peptide panel
[6] = same concentration as used with 0.032 mg/mL peptide
[7] = same concentration as used with 0.064 mg/mL peptide
[8] = same concentration as used with 0.032 mg/mL peptide, 3 h
[9] = same concentration as used with 0.032 mg/mL peptide, 24 h
[10] = same concentration as used with 0.064 mg/mL peptide, 3 h
[11] = same concentration as used with 0.064 mg/mL peptide, 24 h
[12] = same concentration as used with 0.128 mg/mL peptide, 3 h

| SMILES | mean CFU number ± S.D. [1, 4] | mean CFU number ± S.D. [2, 6] | mean CFU number ± S.D. [2, 7] | CFU decrease/increase with respect to untreated controls [3, 8] | mean CFU number ± S.D. [3, 8] | mean CFU number ± S.D. [3, 9] | mean CFU number ± S.D. [3, 10] | mean CFU number ± S.D. [3, 11] | CFU decrease/increase with respect to untreated controls [3, 12] | mean CFU number ± S.D. [3, 12] | other results |
| --- | --- | --- | --- | --- | --- | --- | --- | --- | --- | --- | --- |
| [Cl][Cu][Cl] [CuCl2, reference compound] | 2,184 ± 195 CFU and 1,671 ± 25 CFU and 2,558 ± 367 CFU and 1,800 ± 195 CFU | 201 ± 25 CFU and 178 ± 2 CFU | 170 ±17 CFU and 188 ± 62 CFU | -36% and -42% | 474 ± 91 CFU and 665 ± 96 CFU | 160 ± 42 CFU and 256 ± 3 CFU | 255 ± 23 CFU and 383 ± 82 CFU | 93 ± 28 CFU and 47 ± 28 CFU | -95% and -92% | 57 ± 4 CFU and 64 ± 24 CFU | mean CFU number ± S.D. [1, 5]: 2,152 ± 228 CFU and 1,697 ± 81 CFU and 2,456 ± 236 CFU and 1,820 ± 125 CFU; mean CFU number ± S.D. ([1]; metal salt alone, same concentration as used with 0.128 mg/mL peptide, 24 h, one value per peptide panel): 1,816 ± 109 CFU and 2,139 ± 55 CFU and 1,360 ± 68 CFU and 1,946 ± 96 CFU; mean CFU number ± S.D. ([2]; same concentration as used with 0.128 mg/mL peptide): 201 ± 23 CFU and 159 ± 22 CFU; CFU number reduction by the metal salt alone, over all performed assays ([3]; 3 h): up to 96%; CFU number reduction by the metal salt alone, over all performed assays ([3]; 24 h): up to 96% |
| [Cl-].[Cl-].[Zn+2] [ZnCl2, reference compound] | 1,915 ± 234 CFU and 1,797 ± 162 CFU and 2,249 ± 145 CFU and 1,413.7 ± 348 CFU | 178 ± 60 CFU and 121 ± 11 CFU and 125 ± 60 CFU | 84 ± 13 CFU and 100 ± 11 CFU | -47% and -45% | 449 ± 74 CFU and 559 ± 25 CFU | 170 ± 14 CFU and 238 ± 16 CFU | 249 ± 11 CFU and 329 ± 11 CFU | 163 ± 47 CFU and 235 ± 6 CFU | -95% and -91% | 49 ± 8 CFU and 72 ± 21 CFU | CFU number reduction by the metal salt alone, over all performed assays ([1]; 3 h): up to 64.9%; CFU number reduction by the metal salt alone, over all performed assays ([1]; 24 h): ≤ 94%; mean CFU number ± S.D. ([1]; metal salt alone, same concentration as used with 0.032 mg/mL peptide, 3 h, one value per peptide panel): 94.2 ± 23 CFU and 91 ± 25 CFU and 107 ± 13 CFU; mean CFU number ± S.D. ([1]; metal salt alone, same concentration as used with 0.064 mg/mL peptide, 3 h, one value per peptide panel): 49 ± 2 CFU and 87 ± 6 CFU and 75.33 ± 25 CFU and 98 ± 15 CFU; CFU decrease/increase with respect to untreated controls [1, 5]: -36% and -40% and -38%; mean CFU number ± S.D. ([1]; metal salt alone, same concentration as used with 0.128 mg/mL peptide, 3 h, one value per peptide panel): 32 ± 9 CFU and 62 ± 6 CFU and 53 ± 14 CFU and 34.7 ± 9 CFU; CFU reduction by the metal salt alone compared to controls, over all performed assays [2]: up to 77%; CFU decrease/increase with respect to untreated controls [3, 9]: -1%; CFU decrease/increase with respect to untreated controls [3, 11]: -3% and -5%; mean CFU number ± S.D. ([3]; same concentration as used with 0.128 mg/mL peptide, 24 h): 168 ± 22 CFU |

Reference: publication PMC10600247, “Impact of C- and N-terminal protection on the stability, metal chelation and antimicrobial properties of calcitermin” (Scientific Reports, 2023)
